Experimental data as given in US20150126519A1, “ANTIBIOTIC COMPOUNDS AND COMPOSITIONS, AND METHODS FOR IDENTIFICATION THEREOF” (Fred Hutchinson Cancer Research Center, priority 2012, published 2015).

Key:
RecF pathway = assay: Hfr recombination by the RecF pathway (strain JC9387)
E. coli = assay: Growth of E. coli without phage infection; details: FIG. 11, compound 50 μM
Experimental: Data are the mean and SEM of 4 wells in 2 independent experiments.
This assay was identical to the AddAB (strain V3065) screening assay, except that no phage was added to the wells.

H. pylori AddAB = H. pylori AddAB (Helicobacter pylori, UniProt O25052+O26077); assay: AddAB helicase (DNA unwinding) assay; assay type: biochemical; details: FIG. 10, compound 50 μM
H. pylori AddAB, sequence (O25052 entry or part of it): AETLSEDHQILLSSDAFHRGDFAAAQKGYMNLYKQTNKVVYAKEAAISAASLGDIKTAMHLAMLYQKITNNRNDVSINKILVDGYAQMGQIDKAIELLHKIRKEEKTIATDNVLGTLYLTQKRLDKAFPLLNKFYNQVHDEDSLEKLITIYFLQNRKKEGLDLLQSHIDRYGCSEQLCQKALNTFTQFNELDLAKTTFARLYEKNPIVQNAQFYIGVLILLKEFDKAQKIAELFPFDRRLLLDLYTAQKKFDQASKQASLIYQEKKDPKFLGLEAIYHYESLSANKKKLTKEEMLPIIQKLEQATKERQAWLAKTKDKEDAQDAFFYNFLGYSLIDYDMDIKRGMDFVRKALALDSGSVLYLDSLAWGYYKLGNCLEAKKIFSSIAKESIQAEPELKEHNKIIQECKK
H. pylori AddAB, sequence (O26077 entry or part of it): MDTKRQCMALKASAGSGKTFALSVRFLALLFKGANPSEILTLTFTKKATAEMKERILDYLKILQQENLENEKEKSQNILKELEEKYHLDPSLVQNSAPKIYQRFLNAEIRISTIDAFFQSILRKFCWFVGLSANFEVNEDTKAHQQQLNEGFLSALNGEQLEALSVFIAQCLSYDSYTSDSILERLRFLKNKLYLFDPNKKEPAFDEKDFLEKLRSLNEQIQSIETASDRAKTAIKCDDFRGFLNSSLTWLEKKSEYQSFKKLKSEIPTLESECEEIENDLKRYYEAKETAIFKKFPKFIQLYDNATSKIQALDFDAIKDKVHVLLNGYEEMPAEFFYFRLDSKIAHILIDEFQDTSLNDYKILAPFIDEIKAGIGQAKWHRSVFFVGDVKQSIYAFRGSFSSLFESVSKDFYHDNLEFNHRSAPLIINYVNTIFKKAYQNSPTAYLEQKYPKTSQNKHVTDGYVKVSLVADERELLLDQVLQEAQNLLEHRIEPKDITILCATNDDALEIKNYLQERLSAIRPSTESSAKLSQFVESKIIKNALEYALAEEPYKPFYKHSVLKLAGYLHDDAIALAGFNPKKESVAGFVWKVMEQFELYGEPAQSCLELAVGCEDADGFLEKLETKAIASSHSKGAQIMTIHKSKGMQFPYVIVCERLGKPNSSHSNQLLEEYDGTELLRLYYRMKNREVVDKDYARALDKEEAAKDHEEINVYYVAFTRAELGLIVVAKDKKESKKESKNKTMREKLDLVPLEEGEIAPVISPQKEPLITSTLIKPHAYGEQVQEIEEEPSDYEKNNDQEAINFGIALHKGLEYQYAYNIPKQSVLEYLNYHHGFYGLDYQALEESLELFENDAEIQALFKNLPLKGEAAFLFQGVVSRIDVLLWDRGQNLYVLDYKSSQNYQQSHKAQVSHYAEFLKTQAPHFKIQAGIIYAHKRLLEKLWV
Experimental: DNA unwinding by AddAB enzyme was assayed in the presence of compound (50 μM). Unwinding is indicated by the amount of ss DNA (heavy arrow).
Helicase assays measured the formation of ss DNA from 5′ [^32P] pBR322 X^+^F (or X^o control) DNA (0.1 nM molecules) linearized by digestion with HindIII enzyme. AddAB assays were in 25 mM Tris-acetate (pH 7.5), 2.0 mM Mg(OAc)2, 5 mM ATP, 1.5 μM SSB and used 1 nM enzyme. RecBCD assays used the same conditions but with 0.15 nM enzyme and without SSB. Compounds were added to the reaction mixture containing all the reagents except ATP; final DMSO concentration was 2.5% for each assay. Reactions were started by addition of ATP and were at 37° C. for 1 min (RecBCD) or 2 min (AddAB). Reactions were stopped by addition of ⅓ vol of stop buffer (2.5% SDS, 100 mM EDTA, 0.125% bromophenol blue, 0.125% xylene cyanol FF, and 10% Ficoll), and the products subjected to electrophoresis in a 1.25% agarose gel at 5 V/cm for 2.5 h in TAE buffer (40 mM Tris base, 20 mM acetic acid, 1 mM EDTA). Gels were dried under vacuum, and the products detected by autoradiography or analyzed with a Typhoon Trio PhosphorImager (GE Lifesciences) and ImageQuant TL software (Amersham). With RecBCD, this assay also detects cutting of DNA at the Chi site X^+^F, which produces a 1.46 kb fragment (Smith, G. R.; Kunes, S. M.; Schultz, D. W.; Taylor, A.; Triman, K. L., Cell 1981, 24, 429-436).

E. coli gyrase = E. coli gyrase (Escherichia coli, UniProt P0AES4+P0AES6); assay: Gyrase-catalysed supercoiling; assay type: biochemical
E. coli gyrase, sequence (P0AES4 whole entry, one chain of several): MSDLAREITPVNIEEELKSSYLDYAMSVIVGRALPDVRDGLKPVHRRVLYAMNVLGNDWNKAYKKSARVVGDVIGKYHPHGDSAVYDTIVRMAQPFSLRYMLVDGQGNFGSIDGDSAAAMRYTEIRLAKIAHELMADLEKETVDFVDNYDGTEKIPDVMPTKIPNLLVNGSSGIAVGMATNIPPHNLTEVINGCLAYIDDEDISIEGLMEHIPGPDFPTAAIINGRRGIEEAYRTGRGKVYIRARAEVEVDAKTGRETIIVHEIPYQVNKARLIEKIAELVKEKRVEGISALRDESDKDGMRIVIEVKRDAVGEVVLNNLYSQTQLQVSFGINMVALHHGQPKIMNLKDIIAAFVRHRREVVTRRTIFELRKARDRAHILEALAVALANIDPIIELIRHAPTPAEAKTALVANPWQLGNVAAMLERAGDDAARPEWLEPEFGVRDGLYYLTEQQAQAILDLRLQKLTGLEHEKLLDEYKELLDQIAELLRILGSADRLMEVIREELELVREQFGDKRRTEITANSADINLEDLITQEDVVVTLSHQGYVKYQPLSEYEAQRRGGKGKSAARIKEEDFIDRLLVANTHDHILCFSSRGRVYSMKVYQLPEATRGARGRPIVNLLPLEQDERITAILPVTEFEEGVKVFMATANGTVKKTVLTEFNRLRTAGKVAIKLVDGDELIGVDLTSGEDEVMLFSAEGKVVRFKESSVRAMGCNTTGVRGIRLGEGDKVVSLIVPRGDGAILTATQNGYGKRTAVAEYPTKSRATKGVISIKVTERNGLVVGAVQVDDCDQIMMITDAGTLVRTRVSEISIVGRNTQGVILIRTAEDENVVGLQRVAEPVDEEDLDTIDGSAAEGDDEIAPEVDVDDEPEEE
Experimental: Several compounds as described herein were evaluated for their ability to inhibit bacterial DNA gyrase.

CCn1cc(C(=O)O)c(=O)c2cnc(N3CCN(C(=S)Nc4cccc(C(F)(F)F)c4)CC3)nc21 [Compound 3]
Fold-reduction in recombinant frequency, RecF pathway (RecF pathway; 100 μM compound, recB21 recC22 sbcB14, C(D) (JC9387), mean): 1.8 fold
inhibition of recombination by the E. coli RecE and RecF pathways (in words) (RecF pathway; RecE and RecF pathways together): only marginally inhibits
growth of cells without phage infection (in words) (E. coli): only slightly inhibits E. coli growth in the absence of phage
inhibition of AddAB unwinding (helicase) activity (in words) (H. pylori AddAB): neither compound inhibited AddAB unwinding activity
gyrase inhibition (in words) (E. coli gyrase): weak gyrase inhibitor
